The text below walks through data of ChEMBL document CHEMBL5096127, “Using ChEMBL to complement schistosome drug discovery” (2023).

The structures appear in SMILES notation. Calls of active or inactive are those of the source. How the calls were made is not given here. Square brackets hold non-standard residues; d marks the D form. Peptide text beside a SMILES is read from it. * marks the point of attachment. Benzoyl(4-tBu) = CC(C)(C)c1ccc(C(=O)*)cc1; Lys(Et2) = CCN(CC)CCCC[C@H](N)C(=O)O; Cbz = O=C(OCc1ccccc1)*

The test system of assay [1] is Schistosoma mansoni. The assay is described as follows: In vitro activity on S. mansoni schistosomula at 50 uM. More on the design: test concentration 50 uM, temperature 37 degree C, time incubation 72 h. It is filed as functional, organism-based. As to conditions: Puerto Rican.
The test system of assay [2] is Schistosoma mansoni. The assay is described as follows: In vitro activity on S. mansoni schistosomula at 10 uM. Also noted: test concentration 10 uM, temperature 37 degree C, time incubation 72 h. The settings on record: Puerto Rican. It is filed as functional, organism-based.

Consider `CN[C@@H]1C[C@H]2O[C@@](C)([C@@H]1OC)n1c3ccccc3c3c4c(c5c6ccccc6n2c5c31)C(=O)NC4`, for which the In vitro activity result in the assay with Schistosoma mansoni [1] and in the assay on Schistosoma mansoni [2] was “Active” each time.

As to `CC(=O)Nc1ccc(C(=O)Nc2cc(-c3cccs3)ccc2N)cc1`, the In vitro activity entry with Schistosoma mansoni [1] and with Schistosoma mansoni [2] was “inactive” each time.

Regarding `O=C1NCCCc2c1oc1ccc(O)cc21`, the In vitro activity result with Schistosoma mansoni [1] and in the assay on Schistosoma mansoni [2] was “inactive” each time.

Turning to `CC(O)(CC(=O)O)CC(=O)O`, the In vitro activity result in the assay on Schistosoma mansoni [1] and with Schistosoma mansoni [2] was “inactive” each time.

For `O=C(CCCCCCC(=O)Nc1cccnc1)NO`, the In vitro activity entry in the assay with Schistosoma mansoni [1] and with Schistosoma mansoni [2] was “inactive” each time.

Regarding `O=C(/C=C/c1ccc2c(ccn2S(=O)(=O)c2ccccc2)c1)NO`, in the assay on Schistosoma mansoni [1], the In vitro activity entry was “Active”. Moreover, in the assay with Schistosoma mansoni [2], the In vitro activity entry is “inactive”.

`CN(C)Cc1c(C(=O)NCCOc2ccc(C(=O)NO)cc2)oc2ccccc12`: in the assay on Schistosoma mansoni [1], the In vitro activity entry is “Active”. Also, the In vitro activity result with Schistosoma mansoni [2] was “inactive”.

Take `O=C(NO)c1cnc(NC2(c3ccccc3)CC2)nc1`: the In vitro activity result with Schistosoma mansoni [1] and in the assay on Schistosoma mansoni [2] was “inactive” in each case.

For the molecule `CCN(CC)CCCC[C@H](NC(=O)[C@H](CC(C)C)NC(=O)[C@H](C)NC(=O)[C@H](Cc1ccccc1)NC(=O)c1ccc(C(C)(C)C)cc1)C(=O)N[C@@H](CO)C(=O)OC` ({Benzoyl(4-tBu)}-FAL[Lys(Et2)]S-OMe), the In vitro activity entry with Schistosoma mansoni [1] and in the assay on Schistosoma mansoni [2] was “inactive” in each case.

In the case of `CCN1CCN(Cc2ccc(NC(=O)Nc3ccc(Oc4cc(NC)ncn4)cc3)cc2C(F)(F)F)CC1`, the In vitro activity result in the assay with Schistosoma mansoni [1] was “Active”. Also, in the assay with Schistosoma mansoni [2], the In vitro activity result was “inactive”.

With `CCN1/C(=C/C(C)=O)Sc2ccc(O)cc21`, the In vitro activity entry in the assay with Schistosoma mansoni [1] and with Schistosoma mansoni [2] was “inactive” in each case.

Take `CN1CCC(NC(=O)c2cc(-c3c(O)cc(O)cc3Oc3ccc([N+](=O)[O-])cc3)on2)CC1`: the In vitro activity entry with Schistosoma mansoni [1] and in the assay on Schistosoma mansoni [2] was “inactive” throughout.

Regarding `CN(C)CCCn1cc(C2=C(c3c[nH]c4ccccc34)C(=O)NC2=O)c2ccccc21`, in the assay with Schistosoma mansoni [1], the In vitro activity result is “Active”. In addition, in the assay with Schistosoma mansoni [2], the In vitro activity result was “inactive”.

Take `O=C(CCCCCN1C(=O)c2cccc3cccc(c23)C1=O)NO`: the In vitro activity entry in the assay with Schistosoma mansoni [1] and in the assay with Schistosoma mansoni [2] was “inactive” each time.

Turning to `Nc1ccc(-c2ccc(F)cc2)cc1NC(=O)C1CCOCC1`, the In vitro activity entry with Schistosoma mansoni [1] and in the assay on Schistosoma mansoni [2] was “inactive” each time.

For the molecule `CC(C)c1cccc(=O)c(O)c1`, the In vitro activity entry in the assay with Schistosoma mansoni [1] and in the assay with Schistosoma mansoni [2] was “inactive” in each case.

On to `Nc1nc(N)c2nc(-c3cccc(O)c3)c(-c3cccc(O)c3)nc2n1`, for which the In vitro activity entry with Schistosoma mansoni [1] and in the assay with Schistosoma mansoni [2] was “inactive” each time.

As for `O=C1NC(=O)/C(=C/c2ccc3nccnc3c2)S1`, the In vitro activity result in the assay on Schistosoma mansoni [1] was “Active”. The In vitro activity entry in the assay with Schistosoma mansoni [2] was “inactive”.

On to `C[S+]([O-])c1ccc(-c2nc(-c3ccc(F)cc3)c(-c3ccncc3)[nH]2)cc1` (centres undefined), for which the In vitro activity result in the assay with Schistosoma mansoni [1] and with Schistosoma mansoni [2] was “inactive” throughout.

Consider `O=C(NC1CCNCC1)c1n[nH]cc1NC(=O)c1c(Cl)cccc1Cl`, for which the In vitro activity result in the assay with Schistosoma mansoni [1] and with Schistosoma mansoni [2] was “inactive” throughout.

For `CNC(=O)c1ccc(Nc2nc(OC3CCCC3)c3c(-c4ccc5nc(C)oc5c4)c[nH]c3n2)c(OC)c1`, the In vitro activity entry with Schistosoma mansoni [1] and in the assay on Schistosoma mansoni [2] was “inactive” in each case.

Take `CCN(CC)Cc1ccc2cc(COC(=O)Nc3ccc(C(=O)NO)cc3)ccc2c1`: the In vitro activity result with Schistosoma mansoni [1] and in the assay on Schistosoma mansoni [2] was “inactive” throughout.

As for `c1ccc(-c2n[nH]cc2-c2ccnc3ccccc23)nc1`, the In vitro activity result in the assay on Schistosoma mansoni [1] and with Schistosoma mansoni [2] was “inactive” each time.

With `CN1CCN(C(=O)CN[C@H]2C[C@@H]2c2ccc(OCc3ccccc3)cc2)CC1`, the In vitro activity entry with Schistosoma mansoni [1] was “Active”. Moreover, the In vitro activity result in the assay with Schistosoma mansoni [2] was “inactive”.

With `O=C(CCCCCCNC(=O)c1cnc(N(c2ccccc2)c2ccccc2)nc1)NO`, the In vitro activity result with Schistosoma mansoni [1] and with Schistosoma mansoni [2] was “inactive” throughout.

As to `COc1ccc2c(c1)[nH]c1c(C)nccc12`, the In vitro activity entry in the assay with Schistosoma mansoni [1] and with Schistosoma mansoni [2] was “inactive” throughout.

Turning to `Cc1nccc(-c2cn(Cc3ccccc3)c3cnccc23)n1`, in the assay on Schistosoma mansoni [1], the In vitro activity entry is “Active”. Moreover, the In vitro activity result in the assay on Schistosoma mansoni [2] was “inactive”.

Consider `COc1ccc(-c2nc(N)ncc2-c2csc(C)n2)c(O)c1`, for which the In vitro activity entry in the assay on Schistosoma mansoni [1] and in the assay with Schistosoma mansoni [2] was “inactive” each time.

Regarding `Cc1cccc(-c2[nH]c(C(C)(C)C)nc2-c2ccc3c(c2)OCO3)n1`, the In vitro activity entry in the assay with Schistosoma mansoni [1] and with Schistosoma mansoni [2] was “inactive” in each case.

Take `CC(C)C[C@@H](C=O)NC(=O)[C@H](CC(C)C)NC(=O)[C@H](CC(C)C)NC(=O)OCc1ccccc1` (Cbz-Leu-Leu-Leu-aldehyde): the In vitro activity entry with Schistosoma mansoni [1] is “Active”. In addition, the In vitro activity result in the assay with Schistosoma mansoni [2] was “inactive”.

Consider `N[C@H]1C[C@@H]1c1ccc(-c2cccc(O)c2)cc1`, for which the In vitro activity entry in the assay with Schistosoma mansoni [1] was “Active”. For the same molecule, the In vitro activity entry in the assay on Schistosoma mansoni [2] is “inactive”.

On to `COc1ncc2cc(C(=O)Nc3cc(C(=O)NCc4cccc(Cl)c4)ccc3Cl)c(=O)[nH]c2n1`, for which the In vitro activity result in the assay with Schistosoma mansoni [1] and in the assay on Schistosoma mansoni [2] was “inactive” in each case.

On to `O=C(/C=C/c1ccc(CN(CCO)CCc2c[nH]c3ccccc23)cc1)NO`, for which the In vitro activity entry in the assay with Schistosoma mansoni [1] was “Active”. Besides, in the assay on Schistosoma mansoni [2], the In vitro activity result was “inactive”.

Turning to `CC(=O)N1CCc2c(c(Nc3ccc(-c4cnn(C)c4)cc3F)nn2[C@H]2CCOC2)C1`, the In vitro activity entry with Schistosoma mansoni [1] and with Schistosoma mansoni [2] was “inactive” in each case.

Regarding `CCOC(=O)NCCCC(=O)NCCc1ccccc1`, the In vitro activity result in the assay with Schistosoma mansoni [1] and with Schistosoma mansoni [2] was “inactive” each time.

Consider `COc1ncc(-c2ccc3nc(N)n(-c4ccccc4C(F)(F)F)c(=O)c3c2)cc1S(=O)(=O)Nc1ccc(F)cc1F`, for which, in the assay on Schistosoma mansoni [1], the In vitro activity entry was “Active”. Also, the In vitro activity entry in the assay with Schistosoma mansoni [2] is “inactive”.

For the molecule `O=C(O)c1ccc(CN2CCC(CN[C@@H]3C[C@H]3c3ccccc3)CC2)cc1`, the In vitro activity entry in the assay with Schistosoma mansoni [1] and in the assay with Schistosoma mansoni [2] was “inactive” in each case.

On to `COc1ccc(F)c(F)c1C(=O)c1cnc(NC2CCN(S(C)(=O)=O)CC2)nc1N`, for which the In vitro activity entry with Schistosoma mansoni [1] and in the assay with Schistosoma mansoni [2] was “inactive” each time.

In the case of `O=C(O[C@H]1[C@@H]2C=CO[C@@H](O[C@@H]3O[C@H](CO)[C@@H](O)[C@H](O)[C@H]3O)[C@@H]2[C@@]2(CO)O[C@@H]12)c1ccc(O)cc1`, the In vitro activity result in the assay on Schistosoma mansoni [1] and in the assay with Schistosoma mansoni [2] was “inactive” each time.

For `Cc1cc(/N=N/c2cc(S(=O)(=O)O)c(C)cc2C)c(N)cc1O`, the In vitro activity entry in the assay on Schistosoma mansoni [1] and in the assay with Schistosoma mansoni [2] was “inactive” in each case.

For the molecule `CSc1cccc(Nc2ncc3cc(-c4c(Cl)cccc4Cl)c(=O)n(C)c3n2)c1`, the In vitro activity entry in the assay with Schistosoma mansoni [1] and in the assay with Schistosoma mansoni [2] was “inactive” each time.

Regarding `Nc1nc(Nc2ccc(S(N)(=O)=O)cc2)nn1C(=O)c1c(F)cccc1F`, the In vitro activity result in the assay on Schistosoma mansoni [1] and in the assay on Schistosoma mansoni [2] was “inactive” throughout.

With `Oc1ccc(Nc2nc(-c3ccc(Cl)cc3)cs2)cc1`, the In vitro activity entry with Schistosoma mansoni [1] was “Active”. The In vitro activity entry with Schistosoma mansoni [2] is “inactive”.

On to `C#Cc1cccc(Nc2ncnc3cc(OC)c(OCCCCCCC(=O)NO)cc23)c1`, for which the In vitro activity entry in the assay with Schistosoma mansoni [1] and in the assay with Schistosoma mansoni [2] was “inactive” in each case.

Take `O=C(O)C[C@@H]1C(=O)O[C@H]2[C@@H]3OC(=O)c4cc(O)c(O)c(O)c4-c4c(cc(O)c(O)c4O)C(=O)OC[C@H]2O[C@@H](OC(=O)c2cc(O)c(O)c(O)c2)[C@@H]3OC(=O)c2cc(O)c(O)c3c2[C@H]1[C@H](O)C(=O)O3`: the In vitro activity entry in the assay with Schistosoma mansoni [1] and with Schistosoma mansoni [2] was “inactive” each time.

With `CC(C)(C)c1cnc(CSc2cnc(NC(=O)C3CCNCC3)s2)o1`, the In vitro activity entry in the assay with Schistosoma mansoni [1] and in the assay with Schistosoma mansoni [2] was “inactive” each time.

Consider `CCc1cc(-c2[nH]nc(C)c2-c2ccc3c(c2)OCCO3)c(O)cc1O`, for which, in the assay on Schistosoma mansoni [1], the In vitro activity result is “Active”. The In vitro activity result in the assay on Schistosoma mansoni [2] was “inactive”.

As to `COc1ccc(-c2c(-c3ccc(O)cc3O)n[nH]c2C)cc1`, the In vitro activity result in the assay on Schistosoma mansoni [1] and in the assay on Schistosoma mansoni [2] was “inactive” each time.

As to `Cc1cc(Nc2cc(N3CCN(C)CC3)nc(Sc3ccc(NC(=O)C4CC4)cc3)n2)n[nH]1`, the In vitro activity entry in the assay with Schistosoma mansoni [1] was “Active”. For the same molecule, the In vitro activity result with Schistosoma mansoni [2] is “inactive”.

As to `Cc1nc2c(OCc3ccccc3)cccn2c1CC#N`, the In vitro activity entry with Schistosoma mansoni [1] and in the assay on Schistosoma mansoni [2] was “inactive” throughout.

Regarding `Cc1cccc(-c2nn3c(c2-c2ccnc4ccc(C(N)=O)cc24)CCC3)n1`, the In vitro activity result with Schistosoma mansoni [1] and in the assay with Schistosoma mansoni [2] was “inactive” each time.

For `CC1(C)Cc2c(sc(NC(=S)NC(=O)c3ccccc3)c2C(=O)O)CO1`, the In vitro activity result in the assay on Schistosoma mansoni [1] and in the assay with Schistosoma mansoni [2] was “inactive” throughout.

Turning to `CNC(=O)c1c(F)cccc1Nc1nc(Nc2cc3c(cc2OC)CCN3C(=O)CN(C)C)nc2[nH]ccc12`, the In vitro activity result in the assay on Schistosoma mansoni [1] is “Active”. Besides, the In vitro activity entry in the assay with Schistosoma mansoni [2] was “inactive”.

As for `C[C@H]1CCCC(=O)CCCCCc2cc(O)cc(O)c2C(=O)O1`, the In vitro activity result in the assay with Schistosoma mansoni [1] and in the assay with Schistosoma mansoni [2] was “inactive” throughout.

As for `C[C@]12CC[C@H](O)C[C@H]1CC[C@@H]1[C@@H]2CC[C@]2(C)[C@@H](C3=CC(=O)OC3)CC[C@]12O`, the In vitro activity result in the assay on Schistosoma mansoni [1] is “Active”. In the assay with Schistosoma mansoni [2], the In vitro activity entry is “inactive”.

For `COc1cc(Nc2ncc(F)c(Nc3ccc4c(n3)NC(=O)C(C)(C)O4)n2)cc(OC)c1OC`, the In vitro activity result in the assay on Schistosoma mansoni [1] and with Schistosoma mansoni [2] was “inactive” in each case.

As to `CCCCc1nc2cc(/C=C/C(=O)NO)ccc2n1CCN(CC)CC`, the In vitro activity entry in the assay with Schistosoma mansoni [1] and in the assay on Schistosoma mansoni [2] was “inactive” throughout.
